Assay results taken from patent US9452980B2, “Substituted benzamides” (Hoffmann-La Roche Inc., priority 2009, dated 2016).
Structures can show the parent of a compound that is named as a salt. Where two headings read alike, the source gives them in different places.

Key:
rat TAAR1 = rat TAAR1 (Rattus norvegicus (Rat), UniProt Q923Y9); assay: Radioligand binding assay on rat TAAR1; conditions: read-out: Ki (μM) rat
How it was run: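 Membranes from HEK293 cells stably expressing rat TAAR1, with Kd checked per batch by saturation. Competition with ³H-(S)-4-[(ethyl-phenyl-amino)-methyl]-4,5-dihydro-oxazol-2-ylamine, compounds 10 pM–10 μM in duplicate, 1 hr at 4 °C. Filtration then scintillation counting; nonspecific binding defined with 10 μM unlabeled ligand.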

mouse TAAR1 = mouse TAAR1 (Mus musculus (Mouse), UniProt Q923Y8); assay: Radioligand binding assay on mouse TAAR1; conditions: read-out: Ki (μM) mouse
mouse TAAR1, sequence (Q923Y8 whole entry): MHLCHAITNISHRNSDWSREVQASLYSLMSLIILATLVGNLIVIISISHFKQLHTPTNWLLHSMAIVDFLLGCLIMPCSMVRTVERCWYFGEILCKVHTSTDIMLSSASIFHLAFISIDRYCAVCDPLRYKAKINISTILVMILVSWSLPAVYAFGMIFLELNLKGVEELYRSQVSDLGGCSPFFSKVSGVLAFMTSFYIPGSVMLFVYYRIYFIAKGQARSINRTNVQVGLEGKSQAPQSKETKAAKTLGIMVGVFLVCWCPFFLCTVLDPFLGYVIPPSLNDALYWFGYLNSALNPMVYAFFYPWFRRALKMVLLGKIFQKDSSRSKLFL
How it was run: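 Membranes were from HEK293 cells stably expressing mouse TAAR1. Compounds from 10 pM to 10 μM, in duplicate, competed with [3H]-(S)-4-[(ethyl-phenyl-amino)-methyl]-4,5-dihydro-oxazol-2-ylamine for 1 h at 4 °C. Nonspecific binding was defined with 10 μM unlabelled ligand, and bound radioactivity was read by filtration and scintillation.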

[1] = rat TAAR1, HEK-293 membranes, second value of cell mouse/rat
[2] = mouse TAAR1, HEK-293 membranes, first value of cell mouse/rat

rat TAAR1, sequence (Q923Y9 whole entry): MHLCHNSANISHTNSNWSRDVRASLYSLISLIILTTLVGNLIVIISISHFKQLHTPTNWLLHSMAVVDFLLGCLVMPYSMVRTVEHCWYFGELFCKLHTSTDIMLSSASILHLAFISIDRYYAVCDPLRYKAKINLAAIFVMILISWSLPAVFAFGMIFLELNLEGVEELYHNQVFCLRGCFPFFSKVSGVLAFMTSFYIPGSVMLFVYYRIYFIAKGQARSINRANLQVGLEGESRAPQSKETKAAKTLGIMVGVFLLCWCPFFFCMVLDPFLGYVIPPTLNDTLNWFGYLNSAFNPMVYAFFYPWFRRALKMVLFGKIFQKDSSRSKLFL

SMILES	Ki (rat TAAR1; [1]) [µM]	Ki (mouse TAAR1; [2]) [µM]	Ki (rat TAAR1) [µM]	Ki (mouse TAAR1) [µM]
C[C@@H]1CO[C@@H](c2ccc(NC(=O)c3cccc(Cl)c3)cc2)CN1 [Example 323, 3-Chloro-N-[4-((2S,5R)-5-methyl-morpholin-2-yl)-phenyl]-benzamide hydrochloride]			0.0013	0.0592
O=C(Nc1ccc([C@@H]2CNCCO2)cc1)c1ccc(Cl)cc1 [Example 143, 4-Chloro-N—((R)-4-morpholin-2-yl-phenyl)-benzamide hydrochloride]			0.0006	0.0054
O=C(Nc1ccc([C@@H]2CCCNC2)cc1)c1ccc(OCC(F)(F)F)nc1 [Example 224, (S)—N-(4-(Piperidin-3-yl)phenyl)-6-(2,2,2-trifluoroethoxy)nicotinamide hydrochloride]		0.051	0.0029	
O=C(Nc1ccccc1)Nc1ccc(C2CCNC2)cc1 (racemic) [Example 6, (RS)-1-Phenyl-3-(4-pyrrolidin-3-yl-phenyl)-urea hydrochloride]		0.0032	0.0295	
O=C(Nc1ccc(Cl)cc1)Nc1ccc(C2CNCCO2)cc1 (racemic) [Example 292, (RS)-1-(4-Chlorophenyl)-3-(4-(morpholin-2-yl)phenyl)urea hydrochloride]	0.001	0.001		
CC(C(=O)Nc1ccc(C2CCNC2)cc1)c1cccc(C(=O)c2ccccc2)c1 (racemic) [Example 64, (RS)-2-(3-Benzoyl-phenyl)-N—((RS)-4-pyrrolidin-3-yl-phenyl)-propionamide]	0.0215	0.124		
O=C(Nc1ccc(C2CNCCO2)cc1)c1ccc(C(F)(F)F)nc1 (racemic) [Example 272, (RS)—N-(4-(Morpholin-2-yl)phenyl)-6-(trifluoromethyl)nicotinamide hydrochloride]		0.0214	0.0169	

Continued, in another order:

Ki (rat TAAR1; [1]) [µM]	Ki (mouse TAAR1; [2]) [µM]	SMILES	Ki (rat TAAR1) [µM]	Ki (mouse TAAR1) [µM]
0.0312	12900	O=C(NCc1ccc([C@H]2CNCCO2)cc1)c1cccc(Cl)c1 [Example 318, (S)-3-Chloro-N-(4-(morpholin-2-yl)benzyl)benzamide hydrochloride]		
0.0022	0.0039	COc1cc(C(=O)Nc2ccc([C@H]3CCCNC3)cc2)ccc1Cl [Example 200, (R)-4-Chloro-3-methoxy-N-(4-(piperidin-3-yl)phenyl)benzamide hydrochloride]		
0.0028	0.0147	CCc1ccc(C(=O)Nc2ccc(C3CNCCO3)cc2)cc1 (racemic) [Example 198, (RS)-4-Ethyl-N-(4-(morpholin-2-yl)phenyl)benzamide hydrochloride]		
0.0018	0.211	O=C(Nc1ccc([C@@H]2CCCNC2)cc1)c1ccc(Cl)cc1 [Example 112, 4-Chloro-N—((S)-4-piperidin-3-yl-phenyl)-benzamide]		
0.0121	0.0871	O=C(Nc1ccc(CCC2CCCN2)cc1)c1cnc(Cl)cn1 (racemic) [Example 164, (RS)-5-Chloro-N-(4-(2-(pyrrolidin-2-yl)ethyl)phenyl)pyrazine-2-carboxamide hydrochloride]		
0.007	0.0509	O=C(Nc1ccc([C@H]2CNCCO2)cc1)c1ccc(Cl)cc1I [Example 301, (S)-4-Chloro-2-iodo-N-(4-(morpholin-2-yl)phenyl)benzamide]		
